Measured values from US20230263822A1, “MODULATION OF FACTOR 11 EXPRESSION” (Ionis Pharmaceuticals, Inc., priority 2008, published 2023).
Strand notation (5' to 3'): a small letter for the sugar, then the base; units joined by * are phosphorothioate-linked, units joined directly phosphodiester-linked; [ ] holds rarer units or linkages, { } end groups; capitals alone tell only the bases. e = 2'-O-(2-methoxyethyl) (MOE); [5mC] = 5-methylcytosine; d = 2'-deoxy (DNA)

Experiments:
[1] = system: human Factor 11 mRNA; assay: Antisense inhibition of human Factor 11 in HepG2 cells, electroporation, 8,000 nM (Example 30); format: cell-based; conditions: electroporation, 8,000 nM antisense oligonucleotide
Summary of the method: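 HepG2 cells electroporated with 8,000 nM 5-10-5, 5-8-5 or 6-8-6 MOE gapmers (phosphorothioate, 5-methylcytidine), ~24 h. Factor 11 mRNA quantified by qRT-PCR, normalised to RIBOGREEN total RNA. Reported as percent inhibition versus untreated cells.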

[2] = Viscosity of ISIS antisense oligonucleotides, micro-viscometer at 25 °C (Example 47); format: physicochemical; conditions: for Concentration: concentration of the viscosity sample, UV reading at 260 nM at 85° C.; for Viscosity: in water, micro-viscometer at 25° C., at the concentration of the same line
Procedure: The viscosity of antisense oligonucleotides targeting human Factor 11 was measured with the aim of screening out antisense oligonucleotides which have a viscosity more than 40 cP at a concentration of 165-185 mg/mL.
ISIS oligonucleotides (32-35 mg) were weighed into a glass vial, 120 μL of water was added and the antisense oligonucleotide was dissolved into solution by heating the vial at 50° C. Part of (75 μL) the pre-heated sample was pipetted to a micro-viscometer (Cambridge). The temperature of the micro-viscometter was set to 25° C. and the viscosity of the sample was measured. Another part (20 μL) of the pre-heated sample was pipetted into 10 mL of water for UV reading at 260 nM at 85° C. (Cary UV instrument).

[3] = system: human Factor 11 mRNA; assay: Antisense inhibition of human Factor 11 in HepG2 cells by microwalk gapmers, lipofectin, 75 nM (Example 3); format: cell-based; conditions: HepG2 cells, lipofectin, gapmers targeted to nucleobases 1062 to 1091 of SEQ ID NO: 1
Summary of the method: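 HepG2 cells (10,000/well) were transfected via lipofectin with 75 nM 20-mer MOE gapmers (phosphorothioate, 5-methyl-C) for about 24 h. Factor 11 mRNA was measured by qRT-PCR, normalized to RIBOGREEN total RNA, and given as percent inhibition versus untreated cells.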

[4] = system: human Factor 11 mRNA; assay: Dose-dependent antisense inhibition of human Factor 11 in HepG2 cells, lipofectin 9.375-150 nM (Example 2); format: cell-based; conditions: ~16 h
Procedure: Cells were plated at a density of 10,000 cells per well and transfected using lipofectin reagent with 9.375 nM, 18.75 nM, 37.5 nM, 75 nM, and 150 nM concentrations of antisense oligonucleotide, as specified in Table 3. After a treatment period of approximately 16 hours, RNA was isolated from the cells and Factor 11 mRNA levels were measured by quantitative real-time PCR. Human Factor 11 primer probe set RTS 2966 (forward sequence: […], incorporated herein as SEQ ID NO: 3; reverse sequence: […], incorporated herein as SEQ ID NO: 4; probe sequence: TTGTCTACTGAAGCACACCCAAACAGGGAX, incorporated herein as SEQ ID NO: 5) was used to measure mRNA levels. Factor 11 mRNA levels were adjusted according to total RNA content, as measured by RIBOGREEN. Results are presented as percent inhibition of Factor 11, relative to untreated control cells.

[5] = system: human Factor 11 mRNA; assay: Dose-dependent inhibition of human Factor 11 in HepG2 cells, lipofectin 9.375-75 nM (Example 4); format: cell-based
Summary of the method: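 HepG2 cells transfected via lipofectin with antisense oligonucleotide at 9.375, 18.75, 37.5 or 75 nM for about 16 h. Factor 11 mRNA quantified by real-time RT-PCR (primer probe set RTS 2966) and normalized to total RNA (RIBOGREEN). Results expressed as percent inhibition versus untreated cells.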

[6] = system: human Factor 11 mRNA; assay: Dose-dependent inhibition of human Factor 11 in HepG2 cells, electroporation 0.7-20 uM (Example 4); format: cell-based
Summary of the method: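 HepG2 cells electroporated with antisense gapmers at 0.7, 2.2, 6.7 and 20 μM, treated ~16 h. Factor 11 mRNA quantified by qRT-PCR (primer probe set RTS 2966), normalised to RIBOGREEN total RNA; expressed as percent inhibition versus untreated control cells.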

[7] = system: human Factor 11 mRNA; assay: Antisense inhibition of human Factor 11 in HepG2 cells, lipofectin, 75 nM (Example 1); format: cell-based; conditions: 75 nM antisense oligonucleotide, ~24 h, relative to untreated control cells, gapmers targeted to SEQ ID NO: 1
Summary of the method: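 HepG2 cells transfected via lipofectin with 75 nM antisense oligonucleotide (5-10-5 MOE gapmers, 20-mers, phosphorothioate, 5-methylcytidines), treated ~24 h. Factor 11 mRNA quantified by real-time PCR, normalised to RIBOGREEN total RNA; percent inhibition versus untreated cells.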

[8] = mouse, in vivo, sc, 50 mg/kg
[9] = system: human Factor 11 mRNA; assay: Dose-dependent inhibition of human Factor 11 in HepG2 cells, electroporation 123.46-10,000 nM (Example 31); format: cell-based; conditions: for Percent inhibition of Factor 11 mRNA at 123.47 nM / Percent inhibition of Factor 11 mRNA at 370.37 nM / IC50: electroporation; for Percent inhibition of Factor 11 mRNA at 123.47 nM / Percent inhibition of Factor 11 mRNA at 370.37 nM / Percent inhibition of Factor 11 mRNA at 1,111.11 nM / Percent inhibition of Factor 11 mRNA at 3,333.33 nM / Percent inhibition of Factor 11 mRNA at 10,000.0 nM: approx. 16 hours, relative to untreated control cells; for Percent inhibition of Factor 11 mRNA at 1,111.11 nM: electroporation, 1,111.11 nM; for Percent inhibition of Factor 11 mRNA at 3,333.33 nM: electroporation, 3,333.33 nM; for Percent inhibition of Factor 11 mRNA at 10,000.0 nM: electroporation, 10,000.0 nM; for IC50: Factor 11 mRNA expression
Procedure: Cells were plated at a density of 20,000 cells per well and transfected using electroporation with 123.46 nM, 370.37 nM, 1,111.11 nM, 3,333.33 nM and 10,000 nM concentrations of antisense oligonucleotide, as specified in Table 45. After a treatment period of approximately 16 hours, RNA was isolated from the cells and Factor 11 mRNA levels were measured by quantitative real-time PCR. Human Factor 11 primer probe set RTS 2966 was used to measure mRNA levels. Factor 11 mRNA levels were adjusted according to total RNA content, as measured by RIBOGREEN. Results are presented as percent inhibition of Factor 11, relative to untreated control cells.

| Substance | Percent inhibition of human Factor 11 mRNA levels [1] [%] | Concentration [2] [mg/mL] | Viscosity [2] [cP] | Percent inhibition of Factor 11 mRNA at 123.47 nM [9] [%] | Percent inhibition of Factor 11 mRNA at 370.37 nM [9] [%] | Percent inhibition of Factor 11 mRNA at 1,111.11 nM [9] [%] | Percent inhibition of Factor 11 mRNA at 3,333.33 nM [9] [%] | Percent inhibition of Factor 11 mRNA at 10,000.0 nM [9] [%] | IC50 [9] [nM] | other results |
| --- | --- | --- | --- | --- | --- | --- | --- | --- | --- | --- |
| 445513 (antisense eG*e[5mC]*eA*eG*e[5mC]*eG*dG*dA*d[5mC]*dG*dG*d[5mC]*dA*dT*eT*eG*eG*eT*eG*e[5mC]) [compound 445513] | 85 | 167 | 34 |  |  |  |  |  |  |  |
| 445530 (antisense eG*e[5mC]*eA*eT*eT*dG*dG*dT*dG*d[5mC]*dA*d[5mC]*dA*eG*eT*eT*eT*e[5mC]) [compound 445530] | 83 | 177 | 25 |  |  |  |  |  |  |  |
| 413476 (antisense eT*eT*eG*eA*eG*dA*dT*dT*d[5mC]*dT*dT*dT*dG*dG*dG*e[5mC]*e[5mC]*eA*eT*eT) [compound 413476] |  |  |  |  |  |  |  |  |  | % inhibition [3]: 93%; percent inhibition of Factor 11 at 9.375 nM ([4]; 9.375 nM): 26%; percent inhibition of Factor 11 at 18.75 nM ([4]; 18.75 nM): 44%; percent inhibition of Factor 11 at 37.5 nM ([4]; 37.5 nM): 64%; percent inhibition of Factor 11 at 75 nM ([4]; 75 nM): 73%; percent inhibition of Factor 11 at 150 nM ([4]; 150 nM): 82%; IC50 [4]: 25 nM; IC50 [5]: 21 nM; percent inhibition of Factor 11 at 9.375 nM ([5]; 9.375 nM, relative to untreated control cells): 24%; percent inhibition of Factor 11 at 18.75 nM ([5]; 18.75 nM, relative to untreated control cells): 58%; percent inhibition of Factor 11 at 37.5 nM ([5]; 37.5 nM, relative to untreated control cells): 62%; percent inhibition of Factor 11 at 75 nM ([5]; 75 nM, relative to untreated control cells): 77%; IC50 [6]: 900 nM; percent inhibition of Factor 11 at 0.7 μM ([6]; 0.7 μM, relative to untreated control cells): 40%; percent inhibition of Factor 11 at 2.2 μM ([6]; 2.2 μM, relative to untreated control cells): 69%; percent inhibition of Factor 11 at 6.7 μM ([6]; 6.7 μM, relative to untreated control cells): 88%; percent inhibition of Factor 11 at 20 μM ([6]; 20 μM, relative to untreated control cells): 93%; % inhibition [7]: 88% |
| ISIS 445513, (antisense GCAGCGGACGGCATTGGTGC; 6-8-6 MOE gapmer, further chemistry not given here) |  |  |  |  |  |  |  |  |  | HCT [8]: 50%; RBC [8]: 9.8; WBC [8]: 7; hemoglobin [8]: 15.0 g/dL |
| 445504 (antisense eG*eG*e[5mC]*eA*eT*eT*dG*dG*dT*dG*d[5mC]*dA*d[5mC]*dA*eG*eT*eT*eT*e[5mC]*eT) [compound 445504] | 87 | 139 | 20 | 8 | 20 | 38 | 53 | 68 | 2700 |  |
| 445498 (antisense eG*eG*eT*eG*e[5mC]*eA*d[5mC]*dA*dG*dT*dT*dT*d[5mC]*dT*eG*eG*e[5mC]*eA*eG*eG) [compound 445498] | 83 | 157 | 21 | 3 | 1 | 27 | 50 | 58 | 4800 |  |
